Data on 5 compounds can be found in US10688200B2, “Urea-based prostate specific membrane antigen (PSMA) inhibitors for imaging and therapy” (Five Eleven Pharma Inc., priority 2015, dated 2020).

Test [1] concerns the target T1, PSMA (Homo sapiens, UniProt Q04609).
T1 construct: 100 μL of freshly harvested PSMA cells; endogenous in cells; host or cells: 'PSMA cells' in the method
Briefly: In vitro competitive binding assay to determine IC50 to PSMA. As to conditions: LNCaP cells, [125I]MIP-1095 radioligand, 37° C. 1 h, mean±SD (n=4); read-out: PSMA binding affinities of cold ligands, IC50. The procedure: In Vitro Competitive Binding Assay to Determine IC50 to PSMA
In order to determine the binding affinity, in vitro competitive binding assays were performed. The LNCaP cells were incubated with 150,000 cpm of [^125I]MIP-1095 in the presence of 10 different concentrations of competing drugs. After incubation at 37° C. for 1 h, the bound and free radioactivity were separated by vacuum filtration through GF/B filter paper using a Brandel M-24R cell harvester followed by washing twice. Non-specific binding was defined with 10 μM PMPA. The cell bound radioactivity was measured with a gamma counter, 2470 Wizard^2 (Perkin-Elmer, IL). The IC50 values were calculated by fitting the data using a nonlinear regression algorithm (GraphPad Software).
The PSMA binding affinities were determined in a competitive binding assay using LNCaP human prostate carcinoma cells and the known high affinity PSMA ligand, [^125I]MIP-1095 as the radioligand. Data are expressed as mean±SD (n=4).

Test [2] has as its target T1, PSMA. The experiment in a line: In vitro binding signals of 68Ga labeled ligands in LNCaP tumor homogenates. As to conditions: Ga-68 radiolabeled ligands; for Total binding (TB): 37° C. 60 min; for Nonspecific binding (NSB): with 1a (PSMA11) 10 μM.

T1 sequence (Q04609 whole entry): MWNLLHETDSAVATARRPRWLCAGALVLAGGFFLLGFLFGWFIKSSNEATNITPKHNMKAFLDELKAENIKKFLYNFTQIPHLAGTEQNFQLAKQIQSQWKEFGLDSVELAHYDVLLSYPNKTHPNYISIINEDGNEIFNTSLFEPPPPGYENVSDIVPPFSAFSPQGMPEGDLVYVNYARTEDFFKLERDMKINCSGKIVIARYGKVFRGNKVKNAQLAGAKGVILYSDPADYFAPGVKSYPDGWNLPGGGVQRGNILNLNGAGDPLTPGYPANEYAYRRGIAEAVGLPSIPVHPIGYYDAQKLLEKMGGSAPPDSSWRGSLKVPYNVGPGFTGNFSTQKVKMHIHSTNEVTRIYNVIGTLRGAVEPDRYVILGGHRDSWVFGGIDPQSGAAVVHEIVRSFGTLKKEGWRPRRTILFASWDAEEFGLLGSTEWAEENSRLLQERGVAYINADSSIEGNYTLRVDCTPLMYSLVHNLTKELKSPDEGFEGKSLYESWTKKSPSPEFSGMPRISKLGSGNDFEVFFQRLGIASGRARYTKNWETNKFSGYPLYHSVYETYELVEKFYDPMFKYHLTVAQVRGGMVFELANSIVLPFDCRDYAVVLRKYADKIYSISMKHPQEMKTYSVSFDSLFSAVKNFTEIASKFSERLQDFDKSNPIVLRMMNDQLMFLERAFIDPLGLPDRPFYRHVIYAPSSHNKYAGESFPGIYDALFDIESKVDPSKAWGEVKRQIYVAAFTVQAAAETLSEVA

As to `O=C(O)CCc1ccc(O)c(CN(CCN(CC(=O)O)Cc2cc(CCC(=O)NCCCCCC(=O)NCCCC[C@H](NC(=O)N[C@@H](CCC(=O)O)C(=O)O)C(=O)O)ccc2O)CC(=O)O)n1` [Compound 4a, (3S,7S)-22-(3-(((2-(((6-(2-Carboxyethyl)-3-hydroxypyridin-2-yl)methyl)(carboxymethyl)amino)ethyl)(carboxymethyl)amino)methyl)-4-hydroxyphenyl)-5,13,20-trioxo-4,6,12,19-tetraazadocosane-1,3,7-tricarboxylic acid], the IC50 (as a rule, the concentration that inhibits the measured activity by half) in test [1] was 67.4 ± 30.3 nM. Also, in test [2], the “Specific binding (SB) SB = TB − NSB” value is listed as 12.0, the “Total binding (TB)” value came to 13.4 and the “Nonspecific binding (NSB)” value was 1.4.
Turning to `O=C(O)CCc1ccc(O)c(CN(CCN(CC(=O)O)Cc2cc(CCC(=O)NCCCCCC(=O)NCCCC[C@H](NC(=O)N[C@@H](CCC(=O)O)C(=O)O)C(=O)O)ccc2O)CC(=O)O)c1` [Compound 1a, Glu-NH—CO—NH-Lys(Ahx)-HBED-CC, reference compound], the IC50 in test [1] was 16.6 ± 2.4 nM. Further, in test [2], the “Specific binding (SB) SB = TB − NSB” value stood at 12.3, the “Total binding (TB)” value worked out at 13.5 and the “Nonspecific binding (NSB)” value worked out at 1.2.
In the case of `O=C(O)CCc1ccc(O)c(CN(CCN(CC(=O)O)Cc2nc(CCC(=O)NCCCCCC(=O)NCCCC[C@H](NC(=O)N[C@@H](CCC(=O)O)C(=O)O)C(=O)O)ccc2O)CC(=O)O)n1` [Compound 2, (3S,7S)-22-(6-(((2-(((6-(2-Carboxyethyl)-3-hydroxypyridin-2-yl)methyl) (carboxymethyl)amino)ethyl)(carboxymethyl)amino)methyl)-5-hydroxypyridin-2-yl)-5,13,20-trioxo-4,6,12,19-tetraazadocosane-1,3,7-tricarboxylic acid], in test [1], the IC50 came out at 40.4 ± 18.3 nM. Also, in test [2], the “Specific binding (SB) SB = TB − NSB” value worked out at 4.1, the “Total binding (TB)” value turned out to be 9.2 and the “Nonspecific binding (NSB)” value stood at 5.1.
For the compound `O=C(O)CC[C@H](NC(=O)CCc1ccc(O)c(CN(CCN(CC(=O)O)Cc2cc(CCC(=O)NCCCCCC(=O)NCCCC[C@H](NC(=O)N[C@@H](CCC(=O)O)C(=O)O)C(=O)O)ccc2O)CC(=O)O)c1)C(=O)O` [Compound 1f, (3S,7S)-22-(3-(((Carboxymethyl)(2-((carboxymethyl)(5-(3-(((S)-1,3-dicarboxypropyl)amino)-3-oxopropyl)-2-hydroxybenzyl)amino)ethyl)amino)methyl)-4-hydroxyphenyl)-5,13,20-trioxo-4,6,12,19-tetraazadocosane-1,3,7-tricarboxylic acid], the IC50 in test [1] was 37.2 ± 18.6 nM. Also, in test [2], the “Specific binding (SB) SB = TB − NSB” value was 12.0, the “Total binding (TB)” value is reported as 13.5 and the “Nonspecific binding (NSB)” value amounted to 1.5.
For the compound `O=C(O)CC[C@H](NC(=O)N[C@@H](CCCCNC(=O)[C@H](Cc1ccccc1)NC(=O)COc1ccc(C[C@H](NC(=O)CNC(=O)CN2CCN(CC(=O)O)CCN(CC(=O)O)CCN(CC(=O)O)CC2)C(=O)O)cc1)C(=O)O)C(=O)O` [Compound 5a, (4S,11S,15S)-4-Benzyl-1-(4-((S)-2-carboxy-2-(2-(2-(4,7,10-tris(carboxymethyl)-1,4,7,10-tetraazacyclododecan-1-yl)acetamido)acetamido)ethyl)phenoxy)-2,5,13-trioxo-3,6,12,14-tetraazaheptadecane-11,15,17-tricarboxylic acid.], in test [1], the IC50 turned out to be 36.1 ± 18.1 nM. Also, in test [2], the “Specific binding (SB) SB = TB − NSB” value came out at 2.83, the “Total binding (TB)” value came to 3.30 and the “Nonspecific binding (NSB)” value is on record as 0.47.
